Where “and” joins values, the source holds several entries; their conditions need not be identical. Identical values can stand only once. Inconclusive results and toxic doses are left out.
Test system: BDF1 mice, L1210 leukemia sc, survival T/C
Assay: NCI In Vivo Anticancer Drug Screen. Data for tumor model L1210 Leukemia (subcutaneous) in B6D2F1 (BDF1) mice
Conditions: endpoint: median survival time, vehicle: water, higher = longer survival
How it was run: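 Transplantable tumor-bearing mice; survival or tumor size recorded; result = T/C, treated vs vehicle control.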

## O=P1(NCCCl)OCCCN1CCCl (centres undefined)
dose: 7.8 mg/kg/injection, schedule: Q03HX008 (ip)
  T/C: 166 % of control
dose: 7.8 mg/kg/injection, schedule: Q03HX008 (sc)
  T/C: 111 % of control
dose: 15.62 mg/kg/injection, schedule: Q03HX008 (ip)
  T/C: 155 % of control
dose: 15.62 mg/kg/injection, schedule: Q03HX008 (sc)
  T/C: 122 % of control
dose: 23.0 mg/kg/injection, schedule: Q03HX008 (sc)
  T/C: 178 % of control
dose: 31.25 mg/kg/injection, schedule: Q03HX008 (ip)
  T/C: 166 % of control
dose: 31.25 mg/kg/injection, schedule: Q03HX008 (sc)
  T/C: 166 % of control
dose: 39.0 mg/kg/injection, schedule: Q01DX009 (sc)
  T/C: 168 % of control
dose: 39.0 mg/kg/injection, schedule: Q01DX015 (ip)
  T/C: 194 % of control and 197 % of control
dose: 39.0 mg/kg/injection, schedule: Q03HX008 (sc)
  T/C: 210 % of control
dose: 62.5 mg/kg/injection, schedule: Q03HX008 (ip)
  T/C: 611 % of control
dose: 62.5 mg/kg/injection, schedule: Q03HX008 (sc)
  T/C: 611 % of control
dose: 65.0 mg/kg/injection, schedule: Q01DX009 (sc)
  T/C: 189 % of control
dose: 65.0 mg/kg/injection, schedule: Q01DX015 (ip)
  T/C: 236 % of control
dose: 65.0 mg/kg/injection, schedule: Q03HX008 (sc)
  T/C: 278 % of control
dose: 108.0 mg/kg/injection, schedule: Q01DX001 (sc)
  T/C: 111 % of control and 114 % of control
dose: 108.0 mg/kg/injection, schedule: Q01DX009 (sc)
  T/C: 236 % of control
dose: 108.0 mg/kg/injection, schedule: Q01DX015 (ip)
  T/C: 178 % of control and 187 % of control
dose: 108.0 mg/kg/injection, schedule: Q03HX008 (sc)
  T/C: 115 % of control
dose: 108.0 mg/kg/injection, schedule: Q07DX003 (ip)
  T/C: 210 % of control and 218 % of control
dose: 108.0 mg/kg/injection, schedule: Q08DX002 (sc)
  T/C: 173 % of control
dose: 108.0 mg/kg/injection, schedule: Q09DX003 (sc)
  T/C: 154 % of control and 155 % of control
dose: 125.0 mg/kg/injection, schedule: Q01DX001 (ip)
  T/C: 155 % of control
dose: 125.0 mg/kg/injection, schedule: Q01DX001 (sc)
  T/C: 150 % of control
dose: 130.0 mg/kg/injection, schedule: Q01DX001 (sc)
  T/C: 154 % of control and 157 % of control
dose: 130.0 mg/kg/injection, schedule: Q04DX003 (sc)
  T/C: 189 % of control and 197 % of control
dose: 180.0 mg/kg/injection, schedule: Q01DX001 (ip)
  T/C: 183 % of control and 184 % of control
dose: 180.0 mg/kg/injection, schedule: Q01DX015 (ip)
  T/C: 156 % of control and 157 % of control
dose: 180.0 mg/kg/injection, schedule: Q03HX008 (sc)
  T/C: 105 % of control
dose: 180.0 mg/kg/injection, schedule: Q07DX003 (ip)
  T/C: 252 % of control and 253 % of control
dose: 180.0 mg/kg/injection, schedule: Q08DX002 (sc)
  T/C: 215 % of control
dose: 180.0 mg/kg/injection, schedule: Q09DX003 (sc)
  T/C: 244 % of control and 245 % of control
dose: 216.0 mg/kg/injection, schedule: Q01DX001 (sc)
  T/C: 184 % of control and 185 % of control
dose: 216.0 mg/kg/injection, schedule: Q04DX003 (sc)
  T/C: 210 % of control and 216 % of control
dose: 250.0 mg/kg/injection, schedule: Q01DX001 (ip)
  T/C: 205 % of control
dose: 250.0 mg/kg/injection, schedule: Q01DX001 (sc)
  T/C: 177 % of control
dose: 256.0 mg/kg/injection, schedule: Q01DX001 (sc)
  T/C: 192 % of control and 195 % of control
dose: 300.0 mg/kg/injection, schedule: Q01DX001 (ip)
  T/C: 205 % of control
dose: 300.0 mg/kg/injection, schedule: Q01DX009 (sc)
  T/C: 157 % of control
dose: 300.0 mg/kg/injection, schedule: Q07DX003 (ip)
  T/C: 273 % of control and 279 % of control
dose: 300.0 mg/kg/injection, schedule: Q08DX002 (sc)
  T/C: 100 % of control
dose: 300.0 mg/kg/injection, schedule: Q09DX003 (sc)
  T/C: 244 % of control and 247 % of control
dose: 320.0 mg/kg/injection, schedule: Q01DX001 (sc)
  T/C: 212 % of control and 220 % of control
dose: 360.0 mg/kg/injection, schedule: Q01DX001 (sc)
  T/C: 226 % of control and 229 % of control
dose: 360.0 mg/kg/injection, schedule: Q04DX003 (sc)
  T/C: 242 % of control
dose: 400.0 mg/kg/injection, schedule: Q01DX001 (sc)
  T/C: 235 % of control and 249 % of control
dose: 500.0 mg/kg/injection, schedule: Q01DX001 (ip)
  T/C: 242 % of control
dose: 500.0 mg/kg/injection, schedule: Q08DX002 (sc)
  T/C: 121 % of control
dose: 500.0 mg/kg/injection, schedule: Q09DX003 (sc)
  T/C: 116 % of control and 122 % of control
dose: 600.0 mg/kg/injection, schedule: Q01DX001 (sc)
  T/C: 77 % of control
dose: 600.0 mg/kg/injection, schedule: Q04DX003 (sc)
  T/C: 115 % of control and 117 % of control
dose: 625.0 mg/kg/injection, schedule: Q01DX001 (sc)
  T/C: 124 % of control
dose: 833.0 mg/kg/injection, schedule: Q01DX001 (ip)
  T/C: 71 % of control
dose: 1000.0 mg/kg/injection, schedule: Q01DX001 (sc)
  T/C: 63 % of control

Source: PubChem BioAssay AID250 (DTP/NCI, 2004)
